Measured values: US12370235B2, “Synthetic, non-natural antimicrobial peptides inspired by Staphylococcus auricularis delta toxin” (University of Saskatchewan, priority 2021, dated 2025)
Ends that are not written are not given here.

Experiments:
[1] = test system: S. aureus ATCC 29213; assay: MIC, broth dilution; format: cell-based, Staphylococcus aureus; details: Table 5; STIP3 variants, highest concentration 100 μg/mL
Method in brief: (§1)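 Peptides (95% purity) were serially diluted 2-fold and mixed with bacteria diluted to OD 6×10^−4 in cation-adjusted Mueller Hinton broth. Standing cultures were incubated overnight at 37° C. MIC was the lowest peptide concentration with no observed growth.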

[2] = test system: S. aureus ATCC 33592 (MRSA SCCmec type III); assay: MIC, broth dilution; format: cell-based, Staphylococcus aureus; details: Table 5; STIP3 variants, highest concentration 100 μg/mL
Method in brief: as §1

[3] = test system: S. aureus ATCC BAA-1683 (MRSA SCCmec type IV); assay: MIC, broth dilution; format: cell-based, Staphylococcus aureus; details: Table 5; STIP3 variants, highest concentration 100 μg/mL
Method in brief: as §1

[4] = test system: S. aureus ATCC BAA-2094 (MRSA SCCmec type V); assay: MIC, broth dilution; format: cell-based, Staphylococcus aureus; details: Table 5; STIP3 variants, highest concentration 100 μg/mL
Method in brief: as §1

[5] = test system: S. aureus ATCC BAA-2313 (MRSA SCCmec type XI); assay: MIC, broth dilution; format: cell-based, Staphylococcus aureus; details: Table 5; STIP3 variants, highest concentration 100 μg/mL
Method in brief: as §1

[6] = test system: S. aureus ATCC BAA-41 (MRSA SCCmec type II); assay: MIC, broth dilution; format: cell-based, Staphylococcus aureus; details: Table 5; STIP3 variants, highest concentration 100 μg/mL
Method in brief: as §1

[7] = test system: S. aureus ATCC BAA-42 (MRSA SCCmec type VI); assay: MIC, broth dilution; format: cell-based, Staphylococcus aureus; details: Table 5; STIP3 variants, highest concentration 100 μg/mL
Method in brief: as §1

[8] = test system: S. aureus ATCC BAA-44 (MRSA SCCmec type I); assay: MIC, broth dilution; format: cell-based, Staphylococcus aureus; details: Table 5; STIP3 variants, highest concentration 100 μg/mL
Method in brief: as §1

[9] = test system: Mannheimia haemolytica ATCC 33393; assay: MIC, broth dilution; format: cell-based; details: Table 11; highest concentration 25 μg/mL
Method in brief: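 Peptides (95% purity) in 2-fold dilution series were mixed with M. haemolytica diluted to OD 6×10^−4 in cation-adjusted Mueller Hinton broth and incubated standing overnight at 37 °C. MIC was the lowest concentration with no visible growth.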

[10] = test system: C. albicans MYA-2876; assay: MIC, YPD broth; format: cell-based, Candida albicans; details: Table 8
Method in brief: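 Minimum inhibitory concentrations against Candida albicans were determined in YPD broth (10 g/L yeast extract, 20 g/L peptone, 20 g/L dextrose) using peptides of 95% purity. A 180 μl volume of diluted yeast was combined with 20 μl of peptide in a 2-fold dilution series in 96-well plates, with sterile water as control, then incubated standing overnight at 37° C.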

[11] = test system: C. albicans Y537; assay: MIC, YPD broth; format: cell-based, Candida albicans; details: Table 8
[12] = test system: Candida duobushaemulonii AR 391; assay: MIC, YPD broth, CDC and FDA AR Candida isolate panel; format: cell-based; details: Table 9 below the line: only 200 or 100 μg/mL tested; values reported as 100 are ≤100 μg/mL
Method in brief: (§2)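 Two-fold dilutions of each peptide (95% purity) were mixed with yeast suspended in broth of 10 g/L yeast extract, 20 g/L peptone and 20 g/L dextrose at an optical density of […]. Incubation was static, overnight, 37° C.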

[13] = test system: Candida duobushaemulonii AR 392; assay: as above; format: cell-based; details: Table 9 below the line: only 200 or 100 μg/mL tested; values reported as 100 are ≤100 μg/mL
Method in brief: as §2

[14] = test system: Candida duobushaemulonii AR 394; assay: as above; format: cell-based; details: Table 9 below the line: only 200 or 100 μg/mL tested; values reported as 100 are ≤100 μg/mL
Method in brief: as §2

[15] = test system: Candida haemulonii AR 393; assay: as above; format: cell-based; details: Table 9 below the line: only 200 or 100 μg/mL tested; values reported as 100 are ≤100 μg/mL
Method in brief: as §2

[16] = test system: Candida haemulonii AR 395; assay: as above; format: cell-based; details: Table 9 below the line: only 200 or 100 μg/mL tested; values reported as 100 are ≤100 μg/mL
Method in brief: as §2

[17] = test system: Candida krusei AR 397; assay: as above; format: cell-based; details: Table 9 below the line: only 200 or 100 μg/mL tested; values reported as 100 are ≤100 μg/mL
Method in brief: as §2

[18] = test system: Candida lusitaniae AR 398; assay: as above; format: cell-based; details: Table 9 below the line: only 200 or 100 μg/mL tested; values reported as 100 are ≤100 μg/mL
Method in brief: as §2

[19] = test system: Kodamae ohmeri AR 396; assay: as above; format: cell-based; details: Table 9 below the line: only 200 or 100 μg/mL tested; values reported as 100 are ≤100 μg/mL
Method in brief: as §2

[20] = test system: Saccharomyces cerevisiae AR 399; assay: as above; format: cell-based; details: Table 9 below the line: only 200 or 100 μg/mL tested; values reported as 100 are ≤100 μg/mL
Method in brief: as §2

[21] = test system: Saccharomyces cerevisiae AR 400; assay: as above; format: cell-based; details: Table 9 below the line: only 200 or 100 μg/mL tested; values reported as 100 are ≤100 μg/mL
Method in brief: as §2

[22] = Circular dichroism spectroscopy; format: physicochemical; details: CD, 50% (v/v) TFE
Text: The δ-toxins and the PSMs are characterized as α-helical peptides that form amyloid fibers^48. Although the propensity of individual peptides to form amyloids is correlated to their cytotoxicity^49, the amyloid form is not directly implicated in cell membrane disruption^50. […] CD spectroscopy was used to investigate the secondary structure of a subset of peptides within the collection (FIG. 4A, Table 5). The STIP variants adopted α-helical forms in 50% (v/v) trifluoroethanol (TFE), though unlike the full-length S. auricularis δ-toxin, they were unstructured in water. […] Specifically, peptides characterized by the greatest and least α-helical content in TFE had MICs above the highest tested threshold.
Circular dichroism spectroscopy. Peptides were dissolved in water at concentrations between 0.3 and 0.5 mg/mL. CD spectra were recorded on an Applied Photophysics Chirascan Plus CD spectrophotometer at room temperature in a 0.1 cm path-length quartz cuvette. Spectra were recorded from 180 to 260 nm.

[23] = test system: S. aureus / MRSA (ATCC MP-2 panel); format: cell-based, Staphylococcus aureus; details: MIC screen, in words
Experimental: In order to begin to characterize STIP3-1 and potential sites amenable to modification, an alanine scanning experiment was performed. A total of 16 peptides with single alanine substitutions were assessed to inform on the importance of individual residues to antimicrobial activity. […] Next a series of thirty STIP3-1 variants were designed, guided by the aforementioned alanine scan and a previous report that the central α-helical core of the S. aureus δ-toxin could be converted into AMP through the inclusion of additional lysine residues^39. The collection included ten members with single substitutions relative to STIP3-1 and others that incorporated a number of changes that were designed to increase overall and local cationic charge as well as hydrophobic character (Table 5). Each of the STIPs was screened, including STIP3-1 to STIP-31, for antibiotic activity against a methicillin-sensitive S. aureus test organism and a panel of 7 MRSA strains defined by distinct SCCmec genotypes (FIG. 2; ATCC MP-2).
Determination of minimum inhibitory concentrations. The MICs were measured for bioactive peptides identified from the initial screen. For bacterial studies, cation-adjusted Mueller Hinton (MH) broth was used as the growth medium whereas YPD was used for C. albicans. Bacterial cultures were diluted to a OD value of 6×10^−4 in MH broth and a 180 μl volume was mixed with 20 μl of peptide arrayed as 2-fold dilution series in a 96-well plate. For the positive control, 20 μl of sterile water was used. Plates were incubated as standing cultures overnight at 37° C. The lowest peptide concentration that resulted no observed microbial growth after an overnight treatment was defined as the MIC.

Substance | MIC S. aureus ATCC 29213 [1] | MIC S. aureus ATCC 33592 (III) [2] | MIC S. aureus ATCC BAA 1683 (IV) [3] | MIC S. aureus ATCC BAA 2094 (V) [4] | MIC S. aureus ATCC BAA 2313 (XI) [5] | MIC S. aureus ATCC BAA 41 (II) [6] | MIC S. aureus ATCC BAA 42 (VI) [7] | MIC S. aureus ATCC BAA 44 (I) [8] | MIC (μg/mL) M. haemolytica [9] | MIC C. albicans MYA-2876 [10] | MIC (μg/mL) Candida duobushaemulonii AR 391 [12] | MIC (μg/mL) Candida duobushaemulonii AR 392 [13] | MIC (μg/mL) Candida duobushaemulonii AR 394 [14] | MIC (μg/mL) Candida haemulonii AR 393 [15] | MIC (μg/mL) Candida haemulonii AR 395 [16] | MIC (μg/mL) Candida krusei AR 397 [17] | MIC (μg/mL) Candida lusitaniae AR 398 [18] | MIC (μg/mL) Kodamae ohmeri AR 396 [19] | MIC (μg/mL) Saccharomyces cerevisiae AR 399 [20] | MIC (μg/mL) Saccharomyces cerevisiae AR 400 [21] | also measured
TVGGLVKWILATVKKFA-NH2 [STIP3-28, TVGGLVKWILATVKKFA-NH2] | 25 µg/mL | 6.25 µg/mL | 12.5 µg/mL | 6.25 µg/mL | 12.5 µg/mL | 12.5 µg/mL | 12.5 µg/mL | 12.5 µg/mL | 12.5 µg/mL | 12.5 µg/mL | > (values below the line were determined using two concentrations of peptide 200 or 100 μg/mL) | > (values below the line were determined using two concentrations of peptide 200 or 100 μg/mL) | > (values below the line were determined using two concentrations of peptide 200 or 100 μg/mL) | > (values below the line were determined using two concentrations of peptide 200 or 100 μg/mL) | ≤ 100 µg/mL | ≤ 100 µg/mL | ≤ 100 µg/mL | ≤ 100 µg/mL | ≤ 100 µg/mL | ≤ 100 µg/mL | MIC C. albicans Y537 [11]: 25 µg/mL; α helicity (%) [22]: 75%
TVGVLVKWILNVVAKFA [STIP3-24, TVGVLVKWILNVVAKFA] | > (no inhibition was observed at the highest concentration of peptide tested: 100 μg/mL for the STIP3 variants) | > (no inhibition was observed at the highest concentration of peptide tested: 100 μg/mL for the STIP3 variants) | > (no inhibition was observed at the highest concentration of peptide tested: 100 μg/mL for the STIP3 variants) | > (no inhibition was observed at the highest concentration of peptide tested: 100 μg/mL for the STIP3 variants) | > (no inhibition was observed at the highest concentration of peptide tested: 100 μg/mL for the STIP3 variants) | > (no inhibition was observed at the highest concentration of peptide tested: 100 μg/mL for the STIP3 variants) | > (no inhibition was observed at the highest concentration of peptide tested: 100 μg/mL for the STIP3 variants) | > (no inhibition was observed at the highest concentration of peptide tested: 100 μg/mL for the STIP3 variants) | > (> symbol indicates that no inhibition was observed at the highest concentration of peptide tested: 25 μg/mL) | > (> symbol indicates that no inhibition was observed at the highest concentration of peptide tested: 100 μg/mL) | > (values below the line were determined using two concentrations of peptide 200 or 100 μg/mL) | > (values below the line were determined using two concentrations of peptide 200 or 100 μg/mL) | > (values below the line were determined using two concentrations of peptide 200 or 100 μg/mL) | > (values below the line were determined using two concentrations of peptide 200 or 100 μg/mL) | > (values below the line were determined using two concentrations of peptide 200 or 100 μg/mL) | > (values below the line were determined using two concentrations of peptide 200 or 100 μg/mL) | ≤ 100 µg/mL | > (values below the line were determined using two concentrations of peptide 200 or 100 μg/mL) | ≤ 100 µg/mL | ≤ 100 µg/mL | inhibition of S. aureus [23]: incapable of inhibiting S. aureus
